In patent US7524503B2, “Human cytomegalovirus (HCMV) cytotoxic T cell epitopes, polyepitopes compositions comprising same and diagnostic and prophylactic and therapeutic uses therefor” (priority 2001, dated 2009):
Where no end group is shown, it is not given here.

The sequences below were run against T1, HLA A2 (Homo sapiens, UniProt P04439, D140Y/D185E/D98H/E176V/E277Q/G131W/G231S/I119V/I121R/I166T/I218V/L300P/L318F/N151K/N90K/P208A/P217A/Q86G/Q94H/R138H/R169H/T345S) (assay: not given). Settings: HLA A2 on T2 cells; relative increase in HLA expression vs no peptide at 26° C.
T1 construct: endogenous in cells; host or cells: T2 cells
Type: cell-based

Sequence | MSE (MHC stabilization efficiency)
GLLGASMDL (human cytomegalovirus pp28 CTL epitope peptide) | − (− = 0-50%)
PLIPTTAVI (human cytomegalovirus pp150 CTL epitope peptide) | − (− = 0-50%)
QLRSVIRAL (human cytomegalovirus pp50 CTL epitope peptide) | − (− = 0-50%)
QMWQARLTV | + (+ = 51-99%)
FLLSHDAAL (human cytomegalovirus pp28 CTL epitope peptide) | ++ (++ = 100-199%)
YLTVFTVYL (human cytomegalovirus gH CTL epitope peptide) | ++ (++ = 100-199%)
QMLLALARL (human cytomegalovirus gB CTL epitope peptide) | + (+ = 51-99%)
TLVIPSWHV (human cytomegalovirus pp71 CTL epitope peptide) | ++ (++ = 100-199%)
LLYPTAVDL (human cytomegalovirus gH CTL epitope peptide) | +++ (+++ = 200-300%)
NLALSTPFL (human cytomegalovirus IE2 CTL epitope peptide) | ++ (++ = 100-199%)
LMQKFPKQV (human cytomegalovirus IE2 CTL epitope peptide) | + (+ = 51-99%)
ILDEERDKV (human cytomegalovirus IE1 CTL epitope peptide) | ++ (++ = 100-199%)
SAIIGIYLL (human cytomegalovirus gH CTL epitope peptide) | − (− = 0-50%)
TLTEDFFVV (human cytomegalovirus gH CTL epitope peptide) | ++ (++ = 100-199%)
PLREYLADL (human cytomegalovirus pp28 CTL epitope peptide) | − (− = 0-50%)
YLMDELRYV (human cytomegalovirus gH CTL epitope peptide) | ++ (++ = 100-199%)
YINRALAQI (human cytomegalovirus gB CTL epitope peptide) | ++ (++ = 100-199%)
QLLIPKSFTL (human cytomegalovirus pp71 CTL epitope peptide) | − (− = 0-50%)
VIGDQYVKV [reference compound] | ++ (++ = 100-199%)
TMYGGISLL (human cytomegalovirus IE1 CTL epitope peptide) | ++ (++ = 100-199%)
LLLIVTPVV (human cytomegalovirus pp28 CTL epitope peptide) | ++ (++ = 100-199%)

These sequences were tested on PBMC from healthy HCMV seropositive donors (assay: IFN-γ ELISPOT assay). Settings: donor eight; peptide 10 μg/ml.
Type: cell-based, human
Procedure: ELISPOT assay was used to assess whether stimulation of PBMC from a large panel of seropositive donors with HCMV peptides could induce IFN-γ expression in T cells. Briefly, a 96-well nitrocellulose plate (Multiscreen, Millipore) was coated overnight at 4° C. with mouse monoclonal antibody anti-IFN-γ IgG1 (10 μg/ml; Mabtech Nacka, Sweden). The plate was then washed six times in Phosphate Buffered Saline (PBS) and blocked for 1 hour at 37° C. with PBS supplemented with 5% FCS. The blocking solution was removed and PBMC from healthy HCMV seropositive donors were added at a concentration of 2.5×10^5 cells per well in growth medium. These cells were incubated for 18 h at 37° C. in a 5% CO2 atmosphere in the presence of synthetic peptides from HCMV antigens (10 μg/ml). After incubation, the plate was washed three times with PBS supplemented with 0.05% Tween, followed by three washes with PBS alone. Biotinylated anti-IFN-γ (Mabtech, Nacka Sweden) detection antibody was added to each well at a final concentration of 1 μg/ml in PBS. The plates were incubated at room temperature in the dark for 4 h and then washed, as described above. Streptavidin-Alkaline phosphatase (Sigma) was added to each well at a final concentration of 1 μg/ml in PBS and incubated at room temperature in the dark for 2 h. After a final wash with PBS, the substrate, 5-bromo-4-chloro-3-indolyl phosphate and nitro blue tetrazolium, was added to each well and the plates incubated for 30 min at RT. Cells that produced IFN-γ in response to the presence of peptide were detected as purple spots on the nitrocellulose membrane of each well. The spots were counted automatically using a closed-circuit camera (CCD) and ImagePro image analysis software or automated ELISPOT reader (AID, Germany). The T cell precursor frequency for each peptide was based on the total number of PBMC in the well and the number of peptide-specific spots per well, over an average of 3 wells. The number of peptide-specific spots was also calculated by subtracting the negative control values, which consisted of PBMC without peptide (an average of 3 wells), from the test wells.
To determine whether memory CTL responses against the predictive HCMV potential epitopes could be detected in healthy seropositive virus carriers, we used the ELISPOT assay, which allows rapid identification of CTL epitopes without prolonged in vitro culture.
We tested epitopes that were restricted for HLA A1, A3, A24, A26, B7, B8, B27, B35 and B44 in ELISPOT assays, to determine whether memory T cell responses could be detected in healthy HLA-matched virus carriers. PBMC from a cohort of healthy virus carriers (Table 2) were stimulated with individual peptides and the cells that produced IFN-γ were detected. CTL epitopes that were restricted through either HLA A1, A3, A24, A26, B7, B8 or B27, were identified.
Thus, a total of 450 peptides were produced. ELISPOT assays were used to determine whether ex vivo memory T cell responses could be detected in a cohort of 14 healthy virus carriers (Table 2). PBMC were stimulated with individual peptides and the cells that produced IFN-γ were detected.

Sequence | ELISPOT Responses (SFC/10^6 PBMC)
PRVTSPTHPLSQMNHPPLPD | 52 SFC/10^6 PBMC
ASSPSTGSGTPRBTSPTHPL (ASSPSTGSGTPRXTSPTHPL; not fully specified) | JW(95) SFC/10^6 PBMC
YRNMIIHAATPVDLLGALNL (human cytomegalovirus IE2 CTL epitope peptide) | 132 SFC/10^6 PBMC

Same assay, conditions: donor eleven; peptide 10 μg/ml

Sequence | ELISPOT Responses (SFC/10^6 PBMC)
IGDQYVKVY | 565
TVQGQNLKY | 385

Same assay, conditions: donor epsilon; peptide 10 μg/ml

Sequence | ELISPOT Responses (SFC/10^6 PBMC)
LTVSGLAWTRQQNQWKEPDV | SC(695) SFC/10^6 PBMC
HRQDALPGPCIASTPKKHRG | SC(109) SFC/10^6 PBMC
TSAGRKRKSASSATACTSGV | SC(138) SFC/10^6 PBMC
YRNMIIHAATPVDLLGALNL (human cytomegalovirus IE2 CTL epitope peptide) | 229 SFC/10^6 PBMC
THQLCPRSSDYRNMIIHAAT (human cytomegalovirus IE2 CTL epitope peptide) | 173 SFC/10^6 PBMC
PVDLLGALNLCLPLMQKFPK (human cytomegalovirus IE2 CTL epitope peptide) | 111 SFC/10^6 PBMC
YRHTWDRHDEGAAQGDDDVW | SC(295) SFC/10^6 PBMC
RVKIDEVSRMFRNTNRSLEY | 306 SFC/10^6 PBMC
WQPAAQPKRRRHRQDALPGP | SC(615) SFC/10^6 PBMC

Same assay, conditions: donor fifteen; peptide 10 μg/ml

Sequence | ELISPOT Responses (SFC/10^6 PBMC)
RRKMMYMCYRNIEFFTKNSA (human cytomegalovirus IE1 CTL epitope peptide) | CP(632) SFC/10^6 PBMC
NIEFFTKNSAFPKTTNGCSQ (human cytomegalovirus IE1 CTL epitope peptide) | CP(1767) SFC/10^6 PBMC

Same assay, conditions: donor five; peptide 10 μg/ml

Sequence | ELISPOT Responses (SFC/10^6 PBMC)
YEQHKITSY (human cytomegalovirus pp50 CTL epitope peptide) | CS(67) SFC/10^6 PBMC
TENGSFVAGY (human cytomegalovirus UL18 CTL epitope peptide) | CS(283) SFC/10^6 PBMC

Same assay, conditions: donor four; peptide 10 μg/ml

Sequence | ELISPOT Responses (SFC/10^6 PBMC)
FETSGGLVVFWQGIKQKSLV (human cytomegalovirus gB CTL epitope peptide) | 23 SFC/10^6 PBMC
RPSTPRAAV (human cytomegalovirus pp150 CTL epitope peptide) | MB(306) SFC/10^6 PBMC
ALTVSEHVSYVVTNQYLIKG | MB(23) SFC/10^6 PBMC

Same assay, conditions: donor nine; peptide 10 μg/ml

Sequence | ELISPOT Responses (SFC/10^6 PBMC)
RGDPFDKNY (human cytomegalovirus pp50 CTL epitope peptide) | 720

Same assay, conditions: donor seven; peptide 10 μg/ml

Sequence | ELISPOT Responses (SFC/10^6 PBMC)
FETSGGLVVFWQGIKQKSLV (human cytomegalovirus gB CTL epitope peptide) | 185 SFC/10^6 PBMC
MLPLIKQEDIKPEPDFTIQY | SB(132) SFC/10^6 PBMC

Same assay, conditions: donor sixteen; peptide 10 μg/ml

Sequence | ELISPOT Responses (SFC/10^6 PBMC)
ATSTGDVVY (human cytomegalovirus gB CTL epitope peptide) | TC(239) SFC/10^6 PBMC
IKEHMLKKY (human cytomegalovirus IE1 CTL epitope peptide) | TC(4232) SFC/10^6 PBMC
PRVTSPTHPLSQMNHPPLPD | 96 SFC/10^6 PBMC
RGDPFDKNY (human cytomegalovirus pp50 CTL epitope peptide) | 2739 SFC/10^6 PBMC
KDVALRHVVCAHELVCSMEN | TC(50) SFC/10^6 PBMC
IGDQYVKVY | 67 SFC/10^6 PBMC
DEEEAIVAY (human cytomegalovirus IE1 CTL epitope peptide) | TC(3903) SFC/10^6 PBMC
KCSSGGGASVTSSHHGRGGF | TC(54) SFC/10^6 PBMC
NTDFRVLEL (human cytomegalovirus gB CTL epitope peptide) | TC(1631) SFC/10^6 PBMC
TVQGQNLKY | 251 SFC/10^6 PBMC
CTPNVQTRRGRVKIDEVSRM | TC(89) SFC/10^6 PBMC
YRNMIIHAATPVDLLGALNL (human cytomegalovirus IE2 CTL epitope peptide) | TC(137) SFC/10^6 PBMC
LDEGIMVVY (human cytomegalovirus gB CTL epitope peptide) | TC(239) SFC/10^6 PBMC
VKESPGRCY (human cytomegalovirus gB CTL epitope peptide) | TC(51) SFC/10^6 PBMC
THQLCPRSSDYRNMIIHAAT (human cytomegalovirus IE2 CTL epitope peptide) | 124 SFC/10^6 PBMC
PLGRPDEDSSSSSSSSCSSA | TC(46) SFC/10^6 PBMC
PVDLLGALNLCLPLMQKFPK (human cytomegalovirus IE2 CTL epitope peptide) | 169 SFC/10^6 PBMC
CVETMCNEY (human cytomegalovirus IE1 CTL epitope peptide) [reference compound] | TC(4187) SFC/10^6 PBMC
GLDRNSGNY (human cytomegalovirus pp50 CTL epitope peptide) | 507 SFC/10^6 PBMC
RVKIDEVSRMFRNTNRSLEY | 194 SFC/10^6 PBMC

Same assay, conditions: donor three; peptide 10 μg/ml

Sequence | ELISPOT Responses (SFC/10^6 PBMC)
HANTALVNAVNKLVYTGRLI (human cytomegalovirus pp150 CTL epitope peptide) | MW(122) SFC/10^6 PBMC
GLDRNSGNY (human cytomegalovirus pp50 CTL epitope peptide) | 345 SFC/10^6 PBMC
STSQKPVLGKRVATPHASAR (human cytomegalovirus pp150 CTL epitope peptide) | MW(215) SFC/10^6 PBMC
